In ChEMBL document CHEMBL3046265, “Synthesis, evaluation of antimicrobial activity, and molecular modeling of novel 2-((4-(2H-benzo[d] [1,2,3] triazol-2-yl)piperidin-1-yl)methyl)-5-substituted phenyl-1,3,4-oxadiazoles” (2013):
Activity calls are given as the source filed them. No cut-off for these calls is given here.

Assays:
Format in all cases: functional
[1] = system: Proteus vulgaris; experiment: Antibacterial activity against Proteus vulgaris at 900 ug/ml after overnight incubation; conditions: read-out: IZ
[2] = system: Escherichia coli; experiment: Antibacterial activity against Escherichia coli at 600 ug/ml after overnight incubation; conditions: read-out: IZ
[3] = system: Escherichia coli; experiment: Antibacterial activity against Escherichia coli at 900 ug/ml after overnight incubation; conditions: read-out: IZ
[4] = system: Proteus vulgaris; experiment: Antibacterial activity against Proteus vulgaris at 600 ug/ml after overnight incubation; conditions: read-out: IZ
[5] = system: Colletotrichum falcatum; experiment: Antifungal activity against Glomerella tucumanensis at 300 ug/ml after 48 hr; conditions: read-out: IZ
[6] = system: Fusarium oxysporum; experiment: Antifungal activity against Fusarium oxysporum at 1200 ug/ml after 48 hr; conditions: read-out: IZ
[7] = system: Fusarium oxysporum; experiment: Antifungal activity against Fusarium oxysporum at 900 ug/ml after 48 hr; conditions: read-out: IZ
[8] = system: Fusarium oxysporum; experiment: Antifungal activity against Fusarium oxysporum at 600 ug/ml after 48 hr; conditions: read-out: IZ
[9] = system: Fusarium oxysporum; experiment: Antifungal activity against Fusarium oxysporum at 300 ug/ml after 48 hr; conditions: read-out: IZ
[10] = system: Candida albicans; experiment: Antifungal activity against Candida albicans at 1200 ug/ml after 48 hr; conditions: read-out: IZ
[11] = system: Candida albicans; experiment: Antifungal activity against Candida albicans at 900 ug/ml after 48 hr; conditions: read-out: IZ
[12] = system: Candida albicans; experiment: Antifungal activity against Candida albicans at 600 ug/ml after 48 hr; conditions: read-out: IZ
[13] = system: Candida albicans; experiment: Antifungal activity against Candida albicans at 300 ug/ml after 48 hr; conditions: read-out: IZ
[14] = system: Streptococcus pyogenes; experiment: Antibacterial activity against Streptococcus pyogenes at 900 ug/ml after overnight incubation; conditions: read-out: IZ
[15] = system: Streptococcus pyogenes; experiment: Antibacterial activity against Streptococcus pyogenes at 600 ug/ml after overnight incubation; conditions: read-out: IZ
[16] = system: Staphylococcus aureus; experiment: Antibacterial activity against Staphylococcus aureus at 900 ug/ml after overnight incubation; conditions: for zone of inhibition at 900 µg/mL: read-out: IZ
[17] = system: Staphylococcus aureus; experiment: Antibacterial activity against Staphylococcus aureus at 600 ug/ml after overnight incubation; conditions: for zone of inhibition at 600 µg/mL: read-out: IZ
[18] = system: Bacillus pumilus; experiment: Antibacterial activity against Bacillus pumilus at 900 ug/ml after overnight incubation; conditions: read-out: IZ
[19] = system: Bacillus pumilus; experiment: Antibacterial activity against Bacillus pumilus at 600 ug/ml after overnight incubation; conditions: read-out: IZ
[20] = system: Priestia megaterium; experiment: Antibacterial activity against Bacillus megaterium at 900 ug/ml after overnight incubation; conditions: for zone of inhibition at 900 µg/mL: read-out: IZ
[21] = system: Priestia megaterium; experiment: Antibacterial activity against Bacillus megaterium at 600 ug/ml after overnight incubation; conditions: for zone of inhibition at 600 µg/mL: read-out: IZ
[22] = system: Bacillus subtilis; experiment: Antibacterial activity against Bacillus subtilis at 900 ug/ml after overnight incubation; conditions: read-out: IZ
[23] = system: Bacillus subtilis; experiment: Antibacterial activity against Bacillus subtilis at 600 ug/ml after overnight incubation; conditions: read-out: IZ
[24] = system: Klebsiella aerogenes; experiment: Antibacterial activity against Enterobacter aerogenes at 900 ug/ml after overnight incubation; conditions: read-out: IZ
[25] = system: Klebsiella aerogenes; experiment: Antibacterial activity against Enterobacter aerogenes at 600 ug/ml after overnight incubation; conditions: read-out: IZ
[26] = system: Klebsiella pneumoniae; experiment: Antibacterial activity against Klebsiella pneumoniae at 900 ug/ml after overnight incubation; conditions: read-out: IZ
[27] = system: Klebsiella pneumoniae; experiment: Antibacterial activity against Klebsiella pneumoniae at 600 ug/ml after overnight incubation; conditions: read-out: IZ
[28] = system: Enterococcus faecalis; experiment: Antibacterial activity against Enterococcus faecalis at 900 ug/ml after overnight incubation; conditions: read-out: IZ
[29] = system: Enterococcus faecalis; experiment: Antibacterial activity against Enterococcus faecalis at 600 ug/ml after overnight incubation; conditions: read-out: IZ
[30] = system: Exserohilum rostratum; experiment: Antifungal activity against Setosphaeria rostrata at 1200 ug/ml after 48 hr; conditions: read-out: IZ
[31] = system: Exserohilum rostratum; experiment: Antifungal activity against Setosphaeria rostrata at 900 ug/ml after 48 hr; conditions: read-out: IZ
[32] = system: Exserohilum rostratum; experiment: Antifungal activity against Setosphaeria rostrata at 600 ug/ml after 48 hr; conditions: read-out: IZ
[33] = system: Exserohilum rostratum; experiment: Antifungal activity against Setosphaeria rostrata at 300 ug/ml after 48 hr; conditions: read-out: IZ
[34] = system: Colletotrichum falcatum; experiment: Antifungal activity against Glomerella tucumanensis at 1200 ug/ml after 48 hr; conditions: read-out: IZ
[35] = system: Colletotrichum falcatum; experiment: Antifungal activity against Glomerella tucumanensis at 900 ug/ml after 48 hr; conditions: read-out: IZ
[36] = system: Colletotrichum falcatum; experiment: Antifungal activity against Glomerella tucumanensis at 600 ug/ml after 48 hr; conditions: read-out: IZ

SMILES	zone of inhibition at 900 µg/mL [1]	zone of inhibition at 600 µg/mL [2]	zone of inhibition at 900 µg/mL [3]	zone of inhibition at 600 µg/mL [4]	zone of inhibition at 300 µg/mL [5]	zone of inhibition at 1200 µg/mL [6]	zone of inhibition at 900 µg/mL [7]	zone of inhibition at 600 µg/mL [8]	zone of inhibition at 300 µg/mL [9]	zone of inhibition at 1200 µg/mL [10]	zone of inhibition at 900 µg/mL [11]	zone of inhibition at 600 µg/mL [12]	zone of inhibition at 300 µg/mL [13]	zone of inhibition at 900 µg/mL [14]	zone of inhibition at 600 µg/mL [15]	zone of inhibition at 900 µg/mL [18]	zone of inhibition at 600 µg/mL [19]	zone of inhibition at 900 µg/mL [22]	zone of inhibition at 600 µg/mL [23]	zone of inhibition at 900 µg/mL [24]	other results
Brc1cccc(-c2nnc(CN3CCC(n4nc5ccccc5n4)CC3)o2)c1	5.03 mm	3.25 mm	6.45 mm	2.25 mm	2.95 mm	29.9 mm	15.8 mm	7.86 mm	3.55 mm	16.8 mm	7.86 mm	4.03 mm	2.5 mm	7.25 mm	3.85 mm	8.12 mm	4.25 mm	9.25 mm	4.25 mm	11.6 mm	zone of inhibition at 900 µg/mL [16]: 8.25 mm; zone of inhibition at 600 µg/mL [17]: 4.46 mm; zone of inhibition at 900 µg/mL [20]: 7.25 mm; zone of inhibition at 600 µg/mL [21]: 3.26 mm; zone of inhibition at 600 µg/mL [25]: 5.85 mm; zone of inhibition at 900 µg/mL [26]: 7.62 mm; zone of inhibition at 600 µg/mL [27]: 3.25 mm; zone of inhibition at 900 µg/mL [28]: 5.8 mm; zone of inhibition at 600 µg/mL [29]: 3.21 mm; zone of inhibition at 1200 µg/mL [30]: 15.1 mm; zone of inhibition at 900 µg/mL [31]: 7.96 mm; zone of inhibition at 600 µg/mL [32]: 4.01 mm; zone of inhibition at 300 µg/mL [33]: 3.98 mm; zone of inhibition at 1200 µg/mL [34]: 17.8 mm; zone of inhibition at 900 µg/mL [35]: 9.25 mm; zone of inhibition at 600 µg/mL [36]: 5.01 mm
COc1cccc(-c2nnc(CN3CCC(n4nc5ccccc5n4)CC3)o2)c1	8.45 mm	3.35 mm	6.26 mm	4.36 mm	4.56 mm	21.3 mm	10.1 mm	5.86 mm	3.35 mm	17.2 mm	9.86 mm	5.01 mm	2.52 mm	11.3 mm	4.47 mm	11.2 mm	5.56 mm	9.56 mm	4.25 mm	7.56 mm	inhibition zone (IZ) [16]: inactive; inhibition zone (IZ) [17]: inactive; inhibition zone (IZ) [20]: inactive; inhibition zone (IZ) [21]: inactive; zone of inhibition at 600 µg/mL [25]: 3.65 mm; zone of inhibition at 900 µg/mL [26]: 7.25 mm; zone of inhibition at 600 µg/mL [27]: 3.25 mm; zone of inhibition at 900 µg/mL [28]: 9.26 mm; zone of inhibition at 600 µg/mL [29]: 4.25 mm; zone of inhibition at 1200 µg/mL [30]: 19.2 mm; zone of inhibition at 900 µg/mL [31]: 10.2 mm; zone of inhibition at 600 µg/mL [32]: 5.85 mm; zone of inhibition at 300 µg/mL [33]: 3.32 mm; zone of inhibition at 1200 µg/mL [34]: 25.9 mm; zone of inhibition at 900 µg/mL [35]: 13.9 mm; zone of inhibition at 600 µg/mL [36]: 7.76 mm
Cc1c(Br)cccc1-c1nnc(CN2CCC(n3nc4ccccc4n3)CC2)o1	7.05 mm	5.23 mm	9.46 mm	3.45 mm	3.97 mm	24.9 mm	13.3 mm	6.56 mm	3.42 mm	17.9 mm	9.36 mm	4.18 mm	2.09 mm	9.25 mm	4.82 mm	8.54 mm	4.29 mm	9.8 mm	4.8 mm	7.56 mm	zone of inhibition at 900 µg/mL [16]: 10 mm; zone of inhibition at 600 µg/mL [17]: 4.8 mm; zone of inhibition at 900 µg/mL [20]: 10.3 mm; zone of inhibition at 600 µg/mL [21]: 5.3 mm; zone of inhibition at 600 µg/mL [25]: 3.65 mm; zone of inhibition at 900 µg/mL [26]: 10.2 mm; zone of inhibition at 600 µg/mL [27]: 5.25 mm; zone of inhibition at 900 µg/mL [28]: 12.1 mm; zone of inhibition at 600 µg/mL [29]: 5.92 mm; zone of inhibition at 1200 µg/mL [30]: 23.9 mm; zone of inhibition at 900 µg/mL [31]: 11.3 mm; zone of inhibition at 600 µg/mL [32]: 5.25 mm; zone of inhibition at 300 µg/mL [33]: 2.98 mm; zone of inhibition at 1200 µg/mL [34]: 29.3 mm; zone of inhibition at 900 µg/mL [35]: 15.4 mm; zone of inhibition at 600 µg/mL [36]: 8.25 mm
O=[N+]([O-])c1ccc(-c2nnc(CN3CCC(n4nc5ccccc5n4)CC3)o2)cc1Cl	9.56 mm	4.82 mm	9.56 mm	4.85 mm	4.57 mm	31.4 mm	15.2 mm	8.8 mm	4.45 mm	23.1 mm	12.9 mm	6.25 mm	2.87 mm	7.05 mm	3.35 mm	7.25 mm	3.46 mm	12 mm	5.89 mm	12.4 mm	zone of inhibition at 900 µg/mL [16]: 10.2 mm; zone of inhibition at 600 µg/mL [17]: 4.89 mm; zone of inhibition at 900 µg/mL [20]: 12.3 mm; zone of inhibition at 600 µg/mL [21]: 5.62 mm; zone of inhibition at 600 µg/mL [25]: 6.28 mm; zone of inhibition at 900 µg/mL [26]: 6.25 mm; zone of inhibition at 600 µg/mL [27]: 3.89 mm; zone of inhibition at 900 µg/mL [28]: 7.25 mm; zone of inhibition at 600 µg/mL [29]: 4.52 mm; zone of inhibition at 1200 µg/mL [30]: 23 mm; zone of inhibition at 900 µg/mL [31]: 11 mm; zone of inhibition at 600 µg/mL [32]: 5.56 mm; zone of inhibition at 300 µg/mL [33]: 2.95 mm; zone of inhibition at 1200 µg/mL [34]: 33.2 mm; zone of inhibition at 900 µg/mL [35]: 17.8 mm; zone of inhibition at 600 µg/mL [36]: 9.86 mm
